A word on the pIC50: it is the IC50 on a negative log10 scale, so that one unit is a factor of ten. A low value points to a large IC50. In general, pKd refers to the negative decadic logarithm of the Kd, by convention in mol/L. The low end stands for a large Kd, the high end for a small Kd. As usually defined, the pKi is −log10 of the Ki, conventionally taken in molar units. Lower therefore signals a high Ki.

In assay [1] the target is T1, Bromodomain testis-specific protein [21-137] (Homo sapiens, UniProt Q58F21).
T1 construct: 21-137
The assay is described as follows: AlphaScreen BRD Binding Assay. The following applies: pH 7.5; 25 °C.

The target in assay [2] is T2, Bromodomain-containing protein 4 [44-168] (Human, UniProt O60885).
T2 construct: 44-168
The assay is described as follows: AlphaScreen BRD Binding Assay. Conditions: pH 7.5; 25 °C.

Assay [3] deals with T2, Bromodomain-containing protein 4 [44-168]. Kind of assay: BROMOscan Assay.
The target in assay [4] is T3, Bromodomain-containing protein 4 [44-168,333-460] (Homo sapiens, UniProt O60885).
T3 construct: 44-168,333-460
The assay is described as follows: BROMOscan Assay.

Assay [5] deals with T4, Bromodomain-containing protein 2 [71-194,348-455] (Homo sapiens, UniProt P25440).
T4 construct: 71-194,348-455
The assay is described as follows: Bromodomains Assay for DiscoveRx Gene Symbol.

The target in assay [6] is T5, Bromodomain-containing protein 3 [306-416] (Homo sapiens, UniProt Q15059).
T5 construct: 306-416
The assay is described as follows: Bromodomains Assay for DiscoveRx Gene Symbol.

Assay [7] addresses T6, Bromodomain-containing protein 3 [24-144,306-416] (Homo sapiens, UniProt Q15059).
T6 construct: 24-144,306-416
The assay is described as follows: Bromodomains Assay for DiscoveRx Gene Symbol.

Assay [8] addresses T7, Bromodomain-containing protein 3 [24-144] (Homo sapiens, UniProt Q15059).
T7 construct: 24-144
The assay is described as follows: Bromodomains Assay for DiscoveRx Gene Symbol.

In assay [9] the target is T1, Bromodomain testis-specific protein [21-137]. Kind of assay: Bromodomains Assay for DiscoveRx Gene Symbol.
Assay [10] has as its target T8, Bromodomain testis-specific protein [21-137,251-382] (Homo sapiens, UniProt Q58F21).
T8 construct: 21-137,251-382
Kind of assay: Bromodomains Assay for DiscoveRx Gene Symbol.

Assay [11] has as its target T9, Bromodomain testis-specific protein [251-382] (Homo sapiens, UniProt Q58F21).
T9 construct: 251-382
Kind of assay: Bromodomains Assay for DiscoveRx Gene Symbol.

Assay [12] has as its target T8, Bromodomain testis-specific protein [21-137,251-382]. Kind of assay: BROMOscan Assay.

pIC50, pKd, pKi: −log10 of the molar value.

T5 sequence (Q15059 306-416): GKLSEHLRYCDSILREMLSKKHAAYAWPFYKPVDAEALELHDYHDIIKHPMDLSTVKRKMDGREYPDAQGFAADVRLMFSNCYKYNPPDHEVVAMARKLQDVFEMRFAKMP
T7 sequence (Q15059 24-144): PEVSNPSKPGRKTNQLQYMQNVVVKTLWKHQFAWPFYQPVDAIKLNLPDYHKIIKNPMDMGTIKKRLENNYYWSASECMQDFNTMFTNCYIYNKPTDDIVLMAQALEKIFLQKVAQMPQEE
T4 sequence (P25440 as listed by the source): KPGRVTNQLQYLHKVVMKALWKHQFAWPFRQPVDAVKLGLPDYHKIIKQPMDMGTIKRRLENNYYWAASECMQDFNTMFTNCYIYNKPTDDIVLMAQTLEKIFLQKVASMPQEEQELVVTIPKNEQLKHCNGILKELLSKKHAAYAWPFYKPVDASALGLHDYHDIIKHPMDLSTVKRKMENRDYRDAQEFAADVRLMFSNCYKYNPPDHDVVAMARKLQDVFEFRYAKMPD
T6 sequence (Q15059 as listed by the source): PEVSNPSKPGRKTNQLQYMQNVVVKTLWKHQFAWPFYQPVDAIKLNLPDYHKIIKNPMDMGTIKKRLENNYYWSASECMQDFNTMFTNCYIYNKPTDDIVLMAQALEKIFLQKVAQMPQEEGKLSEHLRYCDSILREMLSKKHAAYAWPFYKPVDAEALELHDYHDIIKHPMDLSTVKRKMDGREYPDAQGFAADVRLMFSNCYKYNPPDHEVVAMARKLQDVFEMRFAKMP

For `COC(=O)C[C@@H]1N=C(c2ccc(Cl)cc2)c2c(sc(C(=O)NCCOCCOCCOCCOCCOCCOCCOCCNC(=O)C[C@@H]3N=C(c4ccc(Cl)cc4)c4c(sc(C)c4C)-n4c(C)nnc43)c2C)-n2c(C)nnc21` [(6S+2S)-PEG7 (11)], the negative-log IC50 (pIC50) was 8.80 in assay [1] and 9.10 in assay [2]. Also, the pKd in assay [3] was 10.59; in [4], 11.23.
`COc1cc2c(cc1-c1c(C)noc1C)ncc1c2n([C@H](C)c2ccccn2)c(=O)n1CC(=O)NCCOCCOCCOCCNC(=O)C[C@@H]1N=C(c2ccc(Cl)cc2)c2c(sc(C)c2C)-n2c(C)nnc21` [6S+IBET-PEG3 (20)]: the negative-log IC50 (pIC50) in assay [1] is 8.24; in assay [2], 7.56.
In the case of `COc1cc2c(cc1-c1c(C)noc1C)ncc1c2n([C@H](C)c2ccccn2)c(=O)n1CC(=O)NCCOCCOCCNC(=O)Cn1c(=O)n([C@@H](C)c2ccccn2)c2c3cc(OC)c(-c4c(C)noc4C)cc3ncc21` [IBETx2-PEG2 (31)], the negative-log IC50 (pIC50) is 6.91 in assay [1] and 6.93 in assay [2].
As for `COC(=O)CC1N=C(c2ccc(Cl)cc2)c2c(sc(C(=O)NCCOCCOCCOCCOCCOCCOCCOCCNC(=O)Cn3c(=O)n([C@H](C)c4ccccn4)c4c5cc(OC)c(-c6c(C)noc6C)cc5ncc43)c2C)-n2c(C)nnc21` (stereo partly drawn) [2S+IBET-PEG7 (28)], the pIC50 in assay [1] is 7.88; in [2] it was 7.76.
As for `COc1cc2c(cc1-c1c(C)noc1C)ncc1c2n([C@H](C)c2ccccn2)c(=O)n1CC(=O)NCCOCCOCCOCCOCCNC(=O)C[C@@H]1N=C(c2ccc(Cl)cc2)c2c(sc(C)c2C)-n2c(C)nnc21` [6S+IBET-PEG4 (21)], the results for the pIC50 in assay [1] and in [2] were 8.21 and 7.53, respectively.
Regarding `COc1cc2c(cc1-c1c(C)noc1C)ncc1c2n([C@H](C)c2ccccn2)c(=O)n1CC(=O)NCCOCCNC(=O)Cn1c(=O)n([C@@H](C)c2ccccn2)c2c3cc(OC)c(-c4c(C)noc4C)cc3ncc21` [IBETx2-PEG1 (30)], the pIC50 is 6.69 in assay [1] and 6.97 in assay [2].
Regarding `Cc1sc2c(c1C)C(c1ccc(Cl)cc1)=NC(CC(=O)NCCOCCOCCOCCOCCOCCOCCOCCNC(=O)C[C@@H]1N=C(c3ccc(Cl)cc3)c3c(sc(C)c3C)-n3c(C)nnc31)c1nnc(C)n1-2` (stereo partly drawn) [MTI (35)], the negative-log Ki (pKi) in [5] is 10.62; in assay [6] it was 10.15.
As to `COC(=O)CC1N=C(c2ccc(Cl)cc2)c2c(sc(C(=O)NCCOCCNC(=O)Cn3c(=O)n([C@H](C)c4ccccn4)c4c5cc(OC)c(-c6c(C)noc6C)cc5ncc43)c2C)-n2c(C)nnc21` (stereo partly drawn) [2S+IBET-PEG1 (24)], the pIC50 was 7.39 in [1] and 7.74 in assay [2].
Take `COC(=O)CC1N=C(c2ccc(Cl)cc2)c2c(sc(C(=O)NCCOCCOCCNC(=O)Cn3c(=O)n([C@H](C)c4ccccn4)c4c5cc(OC)c(-c6c(C)noc6C)cc5ncc43)c2C)-n2c(C)nnc21` (stereo partly drawn) [2S+IBET-PEG2 (25)]: the figures for the pIC50 in assay [1] and in assay [2] were 7.63 and 8.24, respectively.
In the case of `COc1cc2c(cc1-c1c(C)noc1C)ncc1c2n([C@H](C)c2ccccn2)c(=O)n1CC(=O)NCCOCCOCCOCCNC(=O)Cn1c(=O)n([C@@H](C)c2ccccn2)c2c3cc(OC)c(-c4c(C)noc4C)cc3ncc21` [IBETx2-PEG3 (32)], the pIC50 was 7.19 in assay [1] and 7.27 in [2].
For `COC(=O)C[C@@H]1N=C(c2ccc(Cl)cc2)c2c(sc(C(=O)NCCOCCOCCOCCNC(=O)C[C@@H]3N=C(c4ccc(Cl)cc4)c4c(sc(C)c4C)-n4c(C)nnc43)c2C)-n2c(C)nnc21` [(6S+2S)-PEG3 (9)], the negative logarithm of the IC50 (pIC50) is 9.06 in assay [1] and 8.65 in assay [2]. In addition, the negative-log Kd (pKd) in assay [3] is 10.54; in [4], 11.12.
In the same order, the values of `COC(=O)C[C@@H]1N=C(c2ccc(Cl)cc2)c2c(sc(C(=O)NCCNC(=O)C[C@@H]3N=C(c4ccc(Cl)cc4)c4c(sc(C)c4C)-n4c(C)nnc43)c2C)-n2c(C)nnc21` [(6S+2S)-PEG0 (6)] are 8.63, 8.45, 10.47 and 10.33.
For the compound `COC(=O)CC1N=C(c2ccc(Cl)cc2)c2c(sc(C(=O)NCCOCCOCCOCCNC(=O)Cn3c(=O)n([C@H](C)c4ccccn4)c4c5cc(OC)c(-c6c(C)noc6C)cc5ncc43)c2C)-n2c(C)nnc21` (stereo partly drawn) [2S+IBET-PEG3 (26)], the negative-log IC50 (pIC50) in assay [1] was 7.50; in [2], 7.95.
As for `COC(=O)C[C@@H]1N=C(c2ccc(Cl)cc2)c2c(sc(C(=O)NCCOCCNC(=O)C[C@@H]3N=C(c4ccc(Cl)cc4)c4c(sc(C)c4C)-n4c(C)nnc43)c2C)-n2c(C)nnc21` [(6S+2S)-PEG1 (7)], the pKi was 9.96 in [7]; 9.89 in [8]; 9.54 in assay [9]; 11.57 in [6]; 9.38 in [10]. Moreover, the negative-log Kd (pKd) in assay [11] is 10.18; in assay [12], 10.41. This compound gave a negative logarithm of the IC50 (pIC50) in assay [1] of 9.24.
Regarding `COC(=O)C[C@@H]1N=C(c2ccc(Cl)cc2)c2c(sc(C(=O)NCCOCCOCCNC(=O)C[C@@H]3N=C(c4ccc(Cl)cc4)c4c(sc(C)c4C)-n4c(C)nnc43)c2C)-n2c(C)nnc21` [(6S+2S)-PEG2 (8)], the pIC50 is 8.74 in [1] and 8.89 in [2]. Further, the pKd was 10.85 in [3] and 11.04 in [4].
Turning to `COc1cc2c(cc1-c1c(C)noc1C)ncc1c2n([C@H](C)c2ccccn2)c(=O)n1CC(=O)NCCOCCNC(=O)C[C@@H]1N=C(c2ccc(Cl)cc2)c2c(sc(C)c2C)-n2c(C)nnc21` [6S+IBET-PEG1 (18)], the negative-log IC50 (pIC50) in assay [1] is 7.92; in assay [2], 7.27.
The like results for `COc1cc2c(cc1-c1c(C)noc1C)ncc1c2n([C@H](C)c2ccccn2)c(=O)n1CC(=O)NCCNC(=O)Cn1c(=O)n([C@@H](C)c2ccccn2)c2c3cc(OC)c(-c4c(C)noc4C)cc3ncc21` [IBETx2-PEG0 (29)] were, in that order, 6.69 and 6.68.
Take `COC(=O)CC1N=C(c2ccc(Cl)cc2)c2c(sc(C(=O)NCCOCCOCCOCCOCCNC(=O)Cn3c(=O)n([C@H](C)c4ccccn4)c4c5cc(OC)c(-c6c(C)noc6C)cc5ncc43)c2C)-n2c(C)nnc21` (stereo partly drawn) [2S+IBET-PEG4 (27)]: the pIC50 in assay [1] is 7.66; in [2], 7.99.
The like results for `COc1cc2c(cc1-c1c(C)noc1C)ncc1c2n([C@H](C)c2ccccn2)c(=O)n1CC(=O)NCCNC(=O)C[C@@H]1N=C(c2ccc(Cl)cc2)c2c(sc(C)c2C)-n2c(C)nnc21` [6S+IBET-PEG0 (17)] were, in that order, 6.83 and 6.39.
`COC(=O)C[C@@H]1N=C(c2ccc(Cl)cc2)c2c(sc(C(=O)NCCOCCNC(=O)c3sc4c(c3C)C(c3ccc(Cl)cc3)=N[C@H](CC(=O)OC)c3nnc(C)n3-4)c2C)-n2c(C)nnc21` [(2S+2S)-PEG1 (5)] gave a negative logarithm of the IC50 (pIC50) in [2] of 8.93.
In the case of `COc1cc2c(cc1-c1c(C)noc1C)ncc1c2n([C@H](C)c2ccccn2)c(=O)n1CC(=O)NCCOCCOCCOCCOCCNC(=O)Cn1c(=O)n([C@@H](C)c2ccccn2)c2c3cc(OC)c(-c4c(C)noc4C)cc3ncc21` [IBETx2-PEG4 (33)], the negative-log IC50 (pIC50) was 7.22 in [1] and 7.13 in assay [2].
In the same order, the values of `COc1cc2c(cc1-c1c(C)noc1C)ncc1c2n([C@H](C)c2ccccn2)c(=O)n1CC(=O)NCCOCCOCCOCCOCCOCCOCCOCCNC(=O)C[C@@H]1N=C(c2ccc(Cl)cc2)c2c(sc(C)c2C)-n2c(C)nnc21` [6S+IBET-PEG7 (22)] are 8.21 and 7.94.
On to `COC(=O)CC1N=C(c2ccc(Cl)cc2)c2c(sc(C(=O)NCCNC(=O)Cn3c(=O)n([C@H](C)c4ccccn4)c4c5cc(OC)c(-c6c(C)noc6C)cc5ncc43)c2C)-n2c(C)nnc21` (stereo partly drawn) [2S+IBET-PEG0 (23)], for which the values for the negative logarithm of the IC50 (pIC50) in assay [1] and in assay [2] were 6.22 and 6.36, respectively.
Turning to `COc1cc2c(cc1-c1c(C)noc1C)ncc1c2n([C@H](C)c2ccccn2)c(=O)n1CC(=O)NCCOCCOCCNC(=O)C[C@@H]1N=C(c2ccc(Cl)cc2)c2c(sc(C)c2C)-n2c(C)nnc21` [6S+IBET-PEG2 (19)], the negative-log IC50 (pIC50) in [1] was 8.00; in assay [2] it was 7.23. The negative logarithm of the Kd (pKd) in assay [3] is 10.21.
`COc1cc2c(cc1-c1c(C)noc1C)ncc1c2n([C@H](C)c2ccccn2)c(=O)n1CC(=O)NCCOCCOCCOCCOCCOCCOCCOCCNC(=O)Cn1c(=O)n([C@@H](C)c2ccccn2)c2c3cc(OC)c(-c4c(C)noc4C)cc3ncc21` [IBETx2-PEG7 (34)]: the values for the pIC50 in assay [1] and in [2] were 7.87 and 7.52, respectively.
As to `COC(=O)C[C@@H]1N=C(c2ccc(Cl)cc2)c2c(sc(C(=O)NCCOCCOCCOCCOCCNC(=O)C[C@@H]3N=C(c4ccc(Cl)cc4)c4c(sc(C)c4C)-n4c(C)nnc43)c2C)-n2c(C)nnc21` [(6S+2S)-PEG4 (10)], the pIC50 in assay [1] is 8.96; in [2], 8.53. The negative-log Kd (pKd) was 10.64 in assay [3] and 11.18 in [4].

For the origin of these results see BindingDB's records for doi:10.1038/nchembio.2209 (Dana-Farber Cancer Institute, 2016).
